According to publication PMC10453766, “Comparison of the Effects of DOTA and NOTA Chelators on ^64Cu-Cudotadipep and ^64Cu-Cunotadipep for Prostate Cancer” (Diagnostics, 2023):

How the values were obtained:
[1] = tested on: PC3-PIP (PSMA+) cells; experiment: Cell uptake in PC3-PIP cells; format: cell-based, human; settings: PC3-PIP cells, 1 × 10^6 cells, 3.7 MBq, 2 h, 37 °C
Experimental: (§1) PC3-PIP or PC3-flu cells (1 × 10^6) were mixed with 3.7 MBq (100 μCi) of ^64Cu-cudotadipep or ^64Cu-cunotadipep and incubated at 37 °C and 5% CO2 for 2 h. Following incubation, the cells were washed with PBS twice and collected via centrifugation (2000 rpm, 5 min). Radioactivity was measured using 2480 WIZARD2 gamma counter (Perkin Elmer, Waltham, MA, USA). Percent (%) uptake was calculated using the ratio between the radioactivity of the cells and treated radioactivity.

[2] = Radiation-absorbed dose calculation (OLINDA/EXM) from normal mouse biodistribution; set-up: species or system human
Experimental: The biodistribution results of normal BALB/c mice were used to evaluate the human radiation-absorbed dose. The internal absorbed doses of ^64Cu-cudotadipep and ^64Cu-cunotadipep were evaluated using the residence time and total amount of radioactivity in the target organ of the mice. The internal absorbed dose of the mice was converted to the human dose based on the Medical Internal Radiation Dose schema, using OLINDA/EXM version 1.1 software.

[3] = tested on: PC3-PIP tumor xenograft; experiment: Biodistribution in PC3-PIP tumor-bearing nude mice; format: in vivo, mouse; settings: tail vein
Experimental: All animal experiments followed the procedures approved by the Institutional Animal Care and Use Committee of Korea Institute of Radiological & Medical Sciences (approval No. KIRAMS2021-0044). Male BALB/c mice and athymic nude (Nu/Nu) BALB/c mice (weighing 20–25 g, 8 weeks old) were purchased from Nara Biotech (Seoul, Republic of Korea). PC3-PIP cells (1 × 10^7) were dispensed in 100 μL PBS, mixed with Matrigel, and subcutaneously implanted in the right thigh of male athymic nude (Nu/Nu) BALB/c mice. When the tumor reached 0.5–0.9 cm in diameter (2–3 weeks following implantation), biodistribution studies and PET imaging were performed.
(§2) Approximately 0.93 MBq ^64Cu-cudotadipep or ^64Cu-cunotadipep was injected via the tail vein into normal BALB/c mice or PC3-PIP tumor-bearing nude mice (n = 5/group). Normal and tumor-bearing mice were euthanized at 2, 6, 24, and 48 h following injection. Tumor and normal tissues were excised and weighed, and their radioactivity was measured using a gamma counter (2480 WIZARD2 gamma counter, Perkin Elmer, Waltham, MA, USA). The radioactivity measured in each tissue was expressed as a percentage of the injected dose per gram of tissue (%ID/g).

[4] = Biodistribution in normal BALB/c mice; format: in vivo, mouse; settings: tail vein
Experimental: as §2

[5] = tested on: PC3-flu (PSMA−) cells; experiment: Cell uptake in PC3-flu cells; format: cell-based, human; settings: 1 × 10^6 cells, 3.7 MBq, 2 h, 37 °C
Experimental: as §1

O=C([O-])CN1CCN(CC(=O)[O-])CCN(CC(=O)N[C@@H](CCCCNC(=O)CCCc2ccc(I)cc2)C(=O)NCCOCCOCC(=O)N(CCCC[C@H](NC(=O)N[C@@H](CCC(=O)O)C(=O)O)C(=O)O)CC(=O)O)CCN(CC(=O)[O-])CC1.[64Cu+2] [^64Cu-cudotadipep]
cellular uptake [1]: 2.93 ± 0.06%
effective dose ([2]; ICRP tissue-weighting factors, OLINDA/EXM, extrapolated from mouse biodistribution): 3.67 × 10^−1 mSv/MBq
estimated radiation-absorbed dose, kidneys ([2]; adult males, extrapolated from normal BALB/c mouse biodistribution): 8.10 mGy/MBq
Biodistribution, Blood ([3]; 2 h): 2.79 ± 1.90 %ID/g
Biodistribution, Bone ([3]; 2 h): 1.34 ± 0.23 %ID/g
Biodistribution, Fat ([3]; 2 h): 2.22 ± 1.07 %ID/g
Biodistribution, Heart ([3]; 2 h): 2.68 ± 0.45 %ID/g
Biodistribution, Intestine ([3]; 2 h): 5.19 ± 0.68 %ID/g
Biodistribution, Kidney ([3]; 2 h): 23.11 ± 4.11 %ID/g
Biodistribution, Liver ([3]; 2 h): 28.09 ± 3.73 %ID/g
Biodistribution, Lung ([3]; 2 h): 8.02 ± 1.49 %ID/g
Biodistribution, Muscle ([3]; 2 h): 0.78 ± 0.13 %ID/g
Biodistribution, Spleen ([3]; 2 h): 11.94 ± 3.50 %ID/g
Biodistribution, Stomach ([3]; 2 h): 2.35 ± 0.63 %ID/g
Biodistribution, Tumor ([3]; 2 h): 7.95 ± 1.58 %ID/g
Biodistribution, Blood ([3]; 6 h): 1.92 ± 0.53 %ID/g
Biodistribution, Bone ([3]; 6 h): 1.25 ± 0.20 %ID/g
Biodistribution, Fat ([3]; 6 h): 1.12 ± 0.79 %ID/g
Biodistribution, Heart ([3]; 6 h): 2.30 ± 0.30 %ID/g
Biodistribution, Intestine ([3]; 6 h): 4.55 ± 0.77 %ID/g
Biodistribution, Kidney ([3]; 6 h): 21.51 ± 3.13 %ID/g
Biodistribution, Liver ([3]; 6 h): 22.44 ± 2.56 %ID/g
Biodistribution, Lung ([3]; 6 h): 7.35 ± 3.45 %ID/g
Biodistribution, Muscle ([3]; 6 h): 0.40 ± 0.13 %ID/g
Biodistribution, Spleen ([3]; 6 h): 11.43 ± 5.81 %ID/g
Biodistribution, Stomach ([3]; 6 h): 2.18 ± 0.47 %ID/g
Biodistribution, Tumor ([3]; 6 h): 6.03 ± 3.20 %ID/g
Biodistribution, Blood ([3]; 24 h): 1.75 ± 0.41 %ID/g
Biodistribution, Bone ([3]; 24 h): 1.88 ± 0.35 %ID/g
Biodistribution, Fat ([3]; 24 h): 1.23 ± 0.52 %ID/g
Biodistribution, Heart ([3]; 24 h): 2.56 ± 0.49 %ID/g
Biodistribution, Intestine ([3]; 24 h): 4.17 ± 1.45 %ID/g
Biodistribution, Kidney ([3]; 24 h): 21.57 ± 6.53 %ID/g
Biodistribution, Liver ([3]; 24 h): 20.08 ± 4.40 %ID/g
Biodistribution, Lung ([3]; 24 h): 6.00 ± 0.85 %ID/g
Biodistribution, Muscle ([3]; 24 h): 0.69 ± 0.33 %ID/g
Biodistribution, Spleen ([3]; 24 h): 10.43 ± 1.98 %ID/g
Biodistribution, Stomach ([3]; 24 h): 2.66 ± 1.28 %ID/g
Biodistribution, Tumor ([3]; 24 h): 12.12 ± 1.17 %ID/g
Biodistribution, Blood ([3]; 48 h): 1.28 ± 0.24 %ID/g
Biodistribution, Bone ([3]; 48 h): 5.05 ± 6.09 %ID/g
Biodistribution, Fat ([3]; 48 h): 0.88 ± 0.42 %ID/g
Biodistribution, Heart ([3]; 48 h): 2.55 ± 0.12 %ID/g
Biodistribution, Intestine ([3]; 48 h): 2.56 ± 0.62 %ID/g
Biodistribution, Kidney ([3]; 48 h): 20.41 ± 3.03 %ID/g
Biodistribution, Liver ([3]; 48 h): 13.34 ± 0.55 %ID/g
Biodistribution, Lung ([3]; 48 h): 4.36 ± 0.62 %ID/g
Biodistribution, Muscle ([3]; 48 h): 0.98 ± 0.24 %ID/g
Biodistribution, Spleen ([3]; 48 h): 5.74 ± 1.34 %ID/g
Biodistribution, Stomach ([3]; 48 h): 1.72 ± 0.70 %ID/g
Biodistribution, Tumor ([3]; 48 h): 8.62 ± 0.44 %ID/g
Biodistribution, Blood ([4]; 2 h): 4.27 ± 0.64 %ID/g
Biodistribution, Bone ([4]; 2 h): 1.09 ± 0.32 %ID/g
Biodistribution, Brain ([4]; 2 h): 0.26 ± 0.07 %ID/g
Biodistribution, Fat ([4]; 2 h): 1.26 ± 0.28 %ID/g
Biodistribution, Heart ([4]; 2 h): 3.02 ± 0.52 %ID/g
Biodistribution, Intestine ([4]; 2 h): 4.22 ± 0.57 %ID/g
Biodistribution, Kidney ([4]; 2 h): 45.74 ± 12.68 %ID/g
Biodistribution, Liver ([4]; 2 h): 16.12 ± 4.51 %ID/g
Biodistribution, Lung ([4]; 2 h): 5.16 ± 1.26 %ID/g
Biodistribution, Muscle ([4]; 2 h): 1.01 ± 0.15 %ID/g
Biodistribution, Spleen ([4]; 2 h): 6.80 ± 2.46 %ID/g
Biodistribution, Stomach ([4]; 2 h): 2.30 ± 0.60 %ID/g
Biodistribution, Blood ([4]; 6 h): 2.04 ± 0.71 %ID/g
Biodistribution, Bone ([4]; 6 h): 1.10 ± 0.40 %ID/g
Biodistribution, Brain ([4]; 6 h): 0.25 ± 0.10 %ID/g
Biodistribution, Fat ([4]; 6 h): 0.72 ± 0.13 %ID/g
Biodistribution, Heart ([4]; 6 h): 2.67 ± 0.53 %ID/g
Biodistribution, Intestine ([4]; 6 h): 5.85 ± 2.69 %ID/g
Biodistribution, Kidney ([4]; 6 h): 56.43 ± 5.37 %ID/g
Biodistribution, Liver ([4]; 6 h): 19.13 ± 5.32 %ID/g
Biodistribution, Lung ([4]; 6 h): 5.77 ± 1.12 %ID/g
Biodistribution, Muscle ([4]; 6 h): 0.74 ± 0.18 %ID/g
Biodistribution, Spleen ([4]; 6 h): 7.09 ± 0.68 %ID/g
Biodistribution, Stomach ([4]; 6 h): 2.26 ± 1.59 %ID/g
Biodistribution, Blood ([4]; 24 h): 2.01 ± 0.92 %ID/g
Biodistribution, Bone ([4]; 24 h): 0.94 ± 0.41 %ID/g
Biodistribution, Brain ([4]; 24 h): 0.37 ± 0.08 %ID/g
Biodistribution, Fat ([4]; 24 h): 0.70 ± 0.33 %ID/g
Biodistribution, Heart ([4]; 24 h): 2.91 ± 0.66 %ID/g
Biodistribution, Intestine ([4]; 24 h): 3.64 ± 0.83 %ID/g
Biodistribution, Kidney ([4]; 24 h): 41.77 ± 12.09 %ID/g
Biodistribution, Liver ([4]; 24 h): 16.15 ± 3.65 %ID/g
Biodistribution, Lung ([4]; 24 h): 5.56 ± 1.13 %ID/g
Biodistribution, Muscle ([4]; 24 h): 0.68 ± 0.18 %ID/g
Biodistribution, Spleen ([4]; 24 h): 4.14 ± 0.89 %ID/g
Biodistribution, Stomach ([4]; 24 h): 1.38 ± 0.15 %ID/g
Biodistribution, Blood ([4]; 48 h): 1.22 ± 0.36 %ID/g
Biodistribution, Bone ([4]; 48 h): 0.96 ± 0.25 %ID/g
Biodistribution, Brain ([4]; 48 h): 0.44 ± 0.13 %ID/g
Biodistribution, Fat ([4]; 48 h): 0.51 ± 0.27 %ID/g
Biodistribution, Heart ([4]; 48 h): 2.72 ± 0.39 %ID/g
Biodistribution, Intestine ([4]; 48 h): 2.53 ± 0.54 %ID/g
Biodistribution, Kidney ([4]; 48 h): 24.37 ± 1.88 %ID/g
Biodistribution, Liver ([4]; 48 h): 13.48 ± 1.56 %ID/g
Biodistribution, Lung ([4]; 48 h): 4.66 ± 0.50 %ID/g
Biodistribution, Muscle ([4]; 48 h): 0.62 ± 0.12 %ID/g
Biodistribution, Spleen ([4]; 48 h): 2.73 ± 0.28 %ID/g
Biodistribution, Stomach ([4]; 48 h): 1.45 ± 0.65 %ID/g
cellular uptake [5]: 0.44 ± 0.06%
